2 compounds from article PMC4001772 (The Journal of General Physiology, 2014) can be followed below.

Common to all, as to assay: inside-out patch clamp of Xenopus oocytes
What all share (assay type): cell-based
Background: In patch-clamp work, channel activity is measured electrically.

For assay [1], the target named is T1, CFTR (Homo sapiens, UniProt P13569).
Assay [2] deals with CFTR (Homo sapiens, UniProt P13569, E1371S).
For assay [3], the target named is CFTR (Homo sapiens, UniProt P13569, K1250A).
Assay [4] deals with T1, CFTR. The source holds these as a separate data set.

T1 sequence (P13569 whole entry): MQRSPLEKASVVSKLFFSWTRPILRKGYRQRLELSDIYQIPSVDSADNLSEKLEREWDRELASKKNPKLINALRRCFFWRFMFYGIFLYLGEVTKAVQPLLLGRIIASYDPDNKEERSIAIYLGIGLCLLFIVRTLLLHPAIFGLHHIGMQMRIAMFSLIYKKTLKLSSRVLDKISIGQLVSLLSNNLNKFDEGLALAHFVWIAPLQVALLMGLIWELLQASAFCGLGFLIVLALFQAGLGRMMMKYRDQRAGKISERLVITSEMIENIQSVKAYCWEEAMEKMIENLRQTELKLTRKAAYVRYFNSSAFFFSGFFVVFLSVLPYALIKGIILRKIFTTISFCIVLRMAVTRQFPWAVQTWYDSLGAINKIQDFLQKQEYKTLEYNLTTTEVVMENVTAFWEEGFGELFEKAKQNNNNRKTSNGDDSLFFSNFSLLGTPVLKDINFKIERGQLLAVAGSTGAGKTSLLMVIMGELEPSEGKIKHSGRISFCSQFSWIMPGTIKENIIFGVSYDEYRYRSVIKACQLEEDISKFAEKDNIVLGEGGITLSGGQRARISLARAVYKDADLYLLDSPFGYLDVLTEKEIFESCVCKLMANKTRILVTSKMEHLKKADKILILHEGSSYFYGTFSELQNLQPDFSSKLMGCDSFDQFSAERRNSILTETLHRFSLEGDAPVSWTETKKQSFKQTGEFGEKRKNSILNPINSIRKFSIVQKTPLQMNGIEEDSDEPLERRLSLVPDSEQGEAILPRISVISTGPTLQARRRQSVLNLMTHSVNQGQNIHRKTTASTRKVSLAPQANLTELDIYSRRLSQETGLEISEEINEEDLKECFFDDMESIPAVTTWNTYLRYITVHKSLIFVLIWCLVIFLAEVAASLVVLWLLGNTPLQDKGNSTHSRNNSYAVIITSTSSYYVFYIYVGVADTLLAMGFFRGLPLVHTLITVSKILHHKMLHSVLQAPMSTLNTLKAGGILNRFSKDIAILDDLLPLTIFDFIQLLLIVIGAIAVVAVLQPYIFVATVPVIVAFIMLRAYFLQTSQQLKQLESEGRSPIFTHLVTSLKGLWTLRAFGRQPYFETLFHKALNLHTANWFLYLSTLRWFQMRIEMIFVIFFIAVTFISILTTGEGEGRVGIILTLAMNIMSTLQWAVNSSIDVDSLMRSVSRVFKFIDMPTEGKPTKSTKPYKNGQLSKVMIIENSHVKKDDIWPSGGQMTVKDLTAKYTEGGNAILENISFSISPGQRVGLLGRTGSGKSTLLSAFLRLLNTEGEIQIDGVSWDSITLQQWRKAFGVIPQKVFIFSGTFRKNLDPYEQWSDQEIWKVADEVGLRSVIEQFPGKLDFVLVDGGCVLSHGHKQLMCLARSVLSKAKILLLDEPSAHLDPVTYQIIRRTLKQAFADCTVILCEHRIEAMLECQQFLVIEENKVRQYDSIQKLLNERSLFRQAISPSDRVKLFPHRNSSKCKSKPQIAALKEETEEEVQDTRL
Chain of CFTR (Homo sapiens, UniProt P13569, E1371S) (P13569 whole entry E1371S): as the sequence (P13569 whole entry) above, with E1371S counted along it
Chain of CFTR (Homo sapiens, UniProt P13569, K1250A) (P13569 whole entry K1250A): as the sequence (P13569 whole entry) above, with K1250A counted along it

For orientation: EC50 means the concentration giving half of the maximal effect. By Ki is commonly meant the equilibrium dissociation constant of an inhibitor or competing ligand from its target. The low end stands for a stronger hold on the target, the high end for a looser hold on the target. Turning to `O=C(O)c1cc([N+](=O)[O-])ccc1NCCCc1ccccc1` [NPPB, 5-nitro-2-(3-phenylpropylamino)benzoate], the figures for the EC50 at CFTR [1] and on CFTR [3] were roughly 90 µM and roughly 100 µM, respectively. In addition, the inhibition constant (Ki) at CFTR [2] is roughly 20 µM.

Turning to `O=S(=O)(O)CCCN1CCOCC1` [MOPS], the Ki on CFTR [4] was roughly 15000 µM; on CFTR [2] it was roughly 8000 µM.
